According to patent US7064122B2, “Pancreatic lipase inhibitor compounds, their synthesis and use” (OSI Pharmaceuticals, Inc., priority 2001, dated 2006):

Columns and labels:
[1] = target: T1, type VI-S porcine pancreatic lipase (Sus scrofa, UniProt P00591); test: Pancreatic lipase assay (pH-stat titration, triolein substrate); assay type: biochemical; design: Ymax: unit not given here; conditions: for inhibition at 0.7 µM: 12.5 min; for k / Ymax: 7.0 nM lipase, 700 nM inhibitor, pH 8.0; for k: k fitted for the 12.5 min after inhibitor addition, Y=Ymax*(1-exp(-k*X)); for Ymax: Ymax of the fit Y=Ymax*(1-exp(-k*X))
T1 construct: purchased Sigma type VI-S (catalogue number not given)
T1 sequence (P00591 1-450): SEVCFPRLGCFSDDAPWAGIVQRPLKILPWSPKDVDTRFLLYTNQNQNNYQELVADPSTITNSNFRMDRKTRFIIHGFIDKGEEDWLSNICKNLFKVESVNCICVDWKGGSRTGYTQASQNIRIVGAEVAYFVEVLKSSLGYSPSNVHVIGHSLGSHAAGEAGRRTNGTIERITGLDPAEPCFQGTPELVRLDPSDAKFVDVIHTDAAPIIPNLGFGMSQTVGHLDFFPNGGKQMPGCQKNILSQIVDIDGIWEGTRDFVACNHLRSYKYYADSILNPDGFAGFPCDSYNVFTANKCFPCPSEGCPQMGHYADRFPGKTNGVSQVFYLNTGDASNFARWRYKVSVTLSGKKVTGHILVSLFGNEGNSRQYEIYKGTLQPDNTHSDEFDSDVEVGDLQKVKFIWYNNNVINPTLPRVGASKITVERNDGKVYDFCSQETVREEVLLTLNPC
Procedure: The use of a pancreatic lipase assay has been described in the literature (Hadvary, P. et al. Biochem. J. (1988) 256: 357-361; Hadvary, P. et al. Biochem. J. (1991) 266:2021-2027). Pancreatic lipase activity was measured using a 718 Stat Titrino (Brinkmann) programmed to maintain a pH of 8.0 using 0.1 N NaOH. The substrate mixture (pH 8) contained 1 mM taurochenodeoxycholate (Sigma), 9 mM taurodeoxycholate (Sigma), 0.1 mM cholesterol (Sigma), 1 mM phosphatidylcholine (Sigma), 1.5% BSA, 2 mM Tris base, 100 mM NaCl, 10 mM CaCl2, and 3% triolein (Sigma). The mixture (5 mL) was emulsified via sonication at room temperature, and added to the titration vessel with rapid stirring. The Stat Titrino was turned on and lipase (7.0 nM type VI-S porcine pancreatic lipase (Sigma) dissolved in PBS) was added to the vessel. After 10 min, inhibitor (700 nM dissolved in 100% DMSO) was added and the reaction continued for an additional 12.5 min. The k values were determined for the 12.5 min after the addition of the inhibitor using a one phase exponential association equation, Y=Ymax*(1−exp(−k*X)), k values for lipase alone were 0.0004±0.0001 sec. The k values for compounds disclosed herein are >0.0004±0.0001 sec.

Row | inhibition at 0.7 µM [1] | melting point | k [1] | Ymax [1] | Structure (SMILES)
1 | 69.5% | 153 to 154 °C |  |  | CCCCCCCCNc1nc2sc(C(=O)NCCCCc3ccccc3)c(C)c2c(=O)o1 [Entry 79, 5-Methyl-2-octylamino-4-oxo-4H-thieno(2,3-d)(1,3)oxazine-6-carboxylic acid (4-phenyl-butyl)-amide]
2 |  | 136 to 138 °C | 0.222 10-3.s-1 |  | CCCCC(CCCC)Nc1nc2sc(C(=O)OCc3ccccc3)c(C)c2c(=O)o1 [Entry 59, 2-(1-Butyl-pentylamino)-5-methyl-4-oxo-4H-thieno[2,3-d][1,3]oxazine-6-carboxylic acid benzyl ester]
3 |  | 123 to 124 °C | 0.103 10-3.s-1 | 1.901 | CCCCCCCCNc1nc2sc(Cc3ccccc3)cc2c(=O)o1 [Entry 62, 6-Benzyl-2-octylamino-thieno[2,3-d][1,3]oxazin-4-one]
4 |  | 93 to 94 °C | 0.074 10-3.s-1 | 10.091 | CCCCCCCCNc1nc2sc(CCCC)cc2c(=O)o1 [Entry 63, 6-Butyl-2-octylamino-thieno[2,3-d][1,3]oxazin-4-one]
5 |  | 90 to 92 °C | 1.253 10-3.s-1 | 0.156 | CCCCCCCCNc1nc2sc(C(=O)OC(CCCC)CCCC)c(C)c2c(=O)o1 [Entry 39, 5-Methyl-2-octylamino-4-oxo-4H-thieno[2,3-d][1,3]oxazine-6-carboxylic acid 1-butyl-pentyl ester]
6 |  | 148 to 150 °C | 1.544 10-3.s-1 |  | CCCCCCCCNc1nc2sc(C(=O)NCc3cccnc3)c(C)c2c(=O)o1 [Entry 35, 5-Methyl-2-octylamino-4-oxo-4H-thieno[2,3-d][1,3]oxazine-6-carboxylic acid (pyridin-3-ylmethyl)amide]
7 |  | 147 to 149 °C | 0.440 10-3.s-1 |  | CCCCCCCCNc1nc2sc(C(=O)NCC(=O)OCc3ccccc3)c(C)c2c(=O)o1 [Entry 48, [(5-Methyl-2-octylamino-4-oxo-4H-thieno[2,3-d][1,3]oxazine-6-carbonyl)-amino]-acetic acid benzyl ester]
8 | 27.9% | 36 °C |  |  | CCCCCCCCOc1nc2sc(CCCCCCCC)c(C)c2c(=O)o1 [Entry 87]
9 |  | 38 to 41 °C |  |  | CCCCCCCCCCc1cc2c(=O)oc(OCCOC)nc2s1 [Entry 96, 6-Decyl-2-(2-methoxy-ethoxy)-thieno[2,3-d][1,3]oxazin-4-one]
10 |  | 55 to 58 °C |  |  | CCCCCCCCCCc1cc2c(=O)oc(Oc3ccc(CCCC)cc3)nc2s1 [Entry 102, 2-(4-Butyl-phenoxy)-6-decyl-thieno[2,3-d][1,3]oxazin-4-one]
11 |  |  | 0.012 10-3.s-1 |  | CCCCCCCCNc1nc2sc(C(=O)N(CC)CCc3ccccn3)c(C)c2c(=O)o1 [Entry 51, 5-Methyl-2-octylamino-4-oxo-4H-thieno[2,3-d][1,3]oxazine-6-carboxylic acid ethyl-(2-pyridin-2-yl-ethyl)-amide]
12 |  |  | 0.414 10-3.s-1 |  | CCCCCCCCNC(=O)N(CCCCCCCC)c1nc2sc(C(=O)OCc3ccccc3)c(C)c2c(=O)o1 [Entry 13, 2-(1,3-Dioctyl-ureido)-5-methyl-4-oxo-4H-thieno[2,3-d][1,3]oxazine-6-carboxylic acid benzyl ester]
13 |  |  | 2.447 10-3.s-1 |  | CCCCCCCCNc1nc2sc(C(=O)NCCCC)c(C)c2c(=O)o1 [Entry 32, 5-Methyl-2-octylamino-4-oxo-4H-thieno[2,3-d][1,3]oxazine-6-carboxylic acid butylamide]
14 |  |  | 0.797 10-3.s-1 |  | CCCCCCCCCCCCNC(=O)c1sc2nc(NCCCCCCCC)oc(=O)c2c1C [Entry 29, 5-Methyl-2-octylamino-4-oxo-4H-thieno[2,3-d][1,3]oxazine-6-carboxylic acid dodecylamide]
15 |  |  | 2.219 10-3.s-1 | 0.054 | CCCCCCCCOc1nc2sc(CCCC)cc2c(=O)o1 [Entry 75, 6-Butyl-2-octyloxy-thieno[2,3-d][1,3]oxazin-4-one]
16 |  |  | 0.392 10-3.s-1 | 0.482 | CCCCCCCCOc1nc2sc(Cc3ccccc3)cc2c(=O)o1 [Entry 77, 6-Benzyl-2-octyloxythieno[2,3-d][1,3]oxazin-4-one]
17 |  |  | 0.110 10-3.s-1 |  | CCCCCCCCNc1nc2sc(C(=O)N3CCN(Cc4ccccc4)CC3)c(C)c2c(=O)o1 [Entry 40, 6-(4-Benzyl-piperazine-1-carbonyl)-5-methyl-2-octylamino-thieno[2,3-d][1,3]oxazin-4-one]

Row | inhibition at 0.7 µM [1] | melting point | k [1] | Ymax [1] | Structure (SMILES)
18 |  |  | 0.864 10-3.s-1 |  | CCCCCCCCNc1nc2sc(C(=O)NCc3ccccn3)c(C)c2c(=O)o1 [Entry 34, 5-Methyl-2-octylamino-4-oxo-4H-thieno[2,3-d][1,3]oxazine-6-carboxylic acid (pyridin-2-ylmethyl)amide]
19 | 71.3% |  | 3.033 10-3.s-1 | 0.029 | CCCCCCCCOc1nc2sc(CCCCCC)cc2c(=O)o1 [Entry 84, 6-Hexyl-2-octyloxythieno[2,3-d][1,3]oxazin-4-one]
20 |  |  | 0.166 10-3.s-1 |  | CCCCCCCCNc1nc2sc(C(=O)N3CCN(CCN4CCCCC4)CC3)c(C)c2c(=O)o1 [Entry 53, 5-Methyl-2-octylamino-6-[4-(2-piperidin-1-yl-ethyl)-piperazine-1-carbonyl]-thieno[2,3-d][1,3]oxazin-4-one]
21 |  |  | 0.754 10-3.s-1 |  | CCCCCCCCNc1nc2sc(C(=O)NCc3ccncc3)c(C)c2c(=O)o1 [Entry 55, 5-Methyl-2-octylamino-4-oxo-4H-thieno[2,3-d][1,3]oxazine-6-carboxylic acid (pyridin-4-ylmethyl)-amide]
22 |  |  | 1.667 10-3.s-1 |  | CCCCCCCCNc1nc2sc(C(=O)NCCCOc3ccccc3)c(C)c2c(=O)o1 [Entry 44, 5-Methyl-2-octylamino-4-oxo-4H-thieno[2,3-d][1,3]oxazine-6-carboxylic acid (3-phenoxy-propyl)-amide]
23 |  |  | 1.052 10-3.s-1 |  | CCCCCCCOc1nc2sc(C(=O)OCc3ccccc3)c(C)c2c(=O)o1 [Entry 8, 2-Heptyloxy-5-methyl-4-oxo-4H-thieno[2,3-d][1,3]oxazine-6-carboxylic acid benzyl ester]
24 | 96.1% |  |  |  | CCCCCCCCOc1nc2sc(CCCCCCCC)cc2c(=O)o1 [Entry 85, 6-Octyl-2-octyloxy-thieno[2,3-d][1,3]oxazin-4-one]
25 |  |  | 2.173 10-3.s-1 | 0.045 | CCCCCCCCNc1nc2sc(C(=O)NC3CCCCC3)c(C)c2c(=O)o1 [Entry 38, 5-Methyl-2-octylamino-4-oxo-4H-thieno[2,3-d][1,3]oxazine-6-carboxylic acid cyclohexylamide]
26 | 17.9% |  | 1.315 10-3.s-1 | 0.126 | CCCCCCCCOc1nc2sc(C(C)CC(C)(C)C)cc2c(=O)o1 (centres unmarked) [Entry 78, 2-Octyloxy-6-(1,3,3-trimethyl-butyl)-thieno[2,3-d][1,3]oxazin-4-one]
27 |  |  | 0.893 10-3.s-1 |  | CCCCCCCCOc1nc2scc(C)c2c(=O)o1 [Entry 23, 5-Methyl-2-octyloxy-thieno[2,3-d][1,3]oxazin-4-one]
28 |  |  | 0.649 10-3.s-1 |  | CCCCCCCCOc1nc2sc(C(=O)OCc3ccccc3)c(C)c2c(=O)o1 [Entry 5, 5-Methyl-2-octyloxy-4-oxo-4H-thieno[2,3-d][1,3]oxazine-6-carboxylic acid benzyl ester]
29 |  |  | 0.702 10-3.s-1 |  | CCCCCCCCNc1nc2sc(C(=O)NCC(C)C)c(C)c2c(=O)o1 [Entry 54, 5-Methyl-2-octylamino-4-oxo-4H-thieno[2,3-d][1,3]oxazine-6-carboxylic acid isobutyl-amide]
30 |  |  | 0.064 10-3.s-1 | 10.973 | CCCCCCCCCCCc1nc2sc(CCCCCCC)cc2c(=O)o1 [Entry 67, 6-Heptyl-2-undecyl-thieno[2,3-d][1,3]oxazin-4-one]
31 | 73.6% |  |  |  | CCCCCCCCCCc1cc2c(=O)oc(OCCCCCCCC)nc2s1 [Entry 86, 6-Decyl-2-octyloxythieno[2,3-d][1,3]oxazin-4-one]
32 |  |  | 0.547 10-3.s-1 |  | CCCCCCCCOc1nc2sc(C(=O)O)c(C)c2c(=O)o1 [Entry 11, 5-Methyl-2-octyloxy-4-oxo-4H-thieno[2,3-d][1,3]oxazine-6-carboxylic acid]
33 |  |  | 0.433 10-3.s-1 |  | CCCCCCCCCCCCCCCCNC(=O)c1sc2nc(NCCCCCCCC)oc(=O)c2c1C [Entry 30, 5-Methyl-2-octylamino-4-oxo-4H-thieno[2,3-d][1,3]oxazine-6-carboxylic acid hexadecylamide]

Row | Structure (SMILES) | inhibition at 0.7 µM [1] | melting point | k [1] | Ymax [1]
34 | CCCCCCCCc1cc2c(=O)oc(OCCCC)nc2s1 [Entry 95] | 60.3% |  |  | 
